Assays:
Assay in all cases: relative viability (nuclei count vs DMSO), 5 days (fraction); higher = more cells survive
A-427 = test system: A-427
Outline: (§1)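 Lung cancer cell lines in 1536-well plates were dosed by pin tool the day after seeding, either with one drug alone or with a fixed anchor-drug dose plus five library-drug doses (not always all listed) in √10 steps. After 5 days, cells were fixed and their nuclei stained in one step (final 0.05% Triton X-100, 1% formaldehyde, 1 ug/ml Hoechst), then counted on 4× images. Relative viability is the nuclei count in treated wells divided by that in vehicle wells. Values are medians of duplicate plates.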

COR-L23 = test system: COR-L23
Outline: as §1

ChaGo-K-1 = test system: ChaGo-K-1
Outline: as §1

EMC-BAC-2 = test system: EMC-BAC-2
Outline: as §1

HARA = test system: HARA
Outline: as §1

HCC-15 = test system: HCC-15
Outline: as §1

HCC-366 = test system: HCC-366
Outline: as §1

HCC-78 = test system: HCC-78
Outline: as §1

LC-2-ad = test system: LC-2-ad
Outline: as §1

LK-2 = test system: LK-2
Outline: as §1

NCI-H1650 = test system: NCI-H1650
Outline: as §1

NCI-H1734 = test system: NCI-H1734
Outline: as §1

NCI-H1793 = test system: NCI-H1793
Outline: as §1

NCI-H1944 = test system: NCI-H1944
Outline: as §1

NCI-H1993 = test system: NCI-H1993
Outline: as §1

NCI-H2009 = test system: NCI-H2009
Outline: as §1

NCI-H2023 = test system: NCI-H2023
Outline: as §1

NCI-H2228 = test system: NCI-H2228
Outline: as §1

NCI-H23 = test system: NCI-H23
Outline: as §1

NCI-H2405 = test system: NCI-H2405
Outline: as §1

NCI-H838 = test system: NCI-H838
Outline: as §1

SK-LU-1 = test system: SK-LU-1
Outline: as §1

UMC-11 = test system: UMC-11
Outline: as §1

`CC(C)Oc1cc(Nc2nc(N[C@@H](C)c3ccc(F)cn3)ncc2Cl)n[nH]1` [AZ23] + Nc1nc2[nH]cc(CCc3ccc(C(=O)N[C@@H](CCC(=O)O)C(=O)O)cc3)c2c(=O)[nH]1 [Pemetrexed] (partner 0.2 µM) gave a relative viability (A-427; first compound 0.01 µM) of 0.797, a relative viability (A-427; first compound 0.03162 µM) of 1.01 and a relative viability (A-427; first compound 0.3162 µM) of 1.15. For the same molecule, the relative viability (COR-L23; first compound 0.01 µM) was 0.172, the relative viability (COR-L23; first compound 0.03162 µM) was 0.193 and the relative viability (COR-L23; first compound 0.3162 µM) was 0.189. The relative viability (ChaGo-K-1; first compound 0.01 µM) was 0.24, the relative viability (ChaGo-K-1; first compound 0.03162 µM) was 0.256 and the relative viability (ChaGo-K-1; first compound 0.3162 µM) was 0.269. For the same molecule, the relative viability (EMC-BAC-2; first compound 0.01 µM) was 0.493, the relative viability (EMC-BAC-2; first compound 0.03162 µM) was 0.46 and the relative viability (EMC-BAC-2; first compound 0.3162 µM) was 0.442. For the same molecule, the relative viability (HARA; first compound 0.01 µM) was 0.147, the relative viability (HARA; first compound 0.03162 µM) was 0.309 and the relative viability (HARA; first compound 0.3162 µM) was 0.281. The relative viability (HCC-15; first compound 0.01 µM) was 0.204, the relative viability (HCC-15; first compound 0.03162 µM) was 0.222 and the relative viability (HCC-15; first compound 0.3162 µM) was 0.208. It also gave a relative viability (HCC-366; first compound 0.01 µM) of 0.0994, a relative viability (HCC-366; first compound 0.03162 µM) of 0.186 and a relative viability (HCC-366; first compound 0.3162 µM) of 0.171. For the same molecule, the relative viability (HCC-78; first compound 0.01 µM) was 0.976, the relative viability (HCC-78; first compound 0.03162 µM) was 0.902 and the relative viability (HCC-78; first compound 0.3162 µM) was 0.938. For the same molecule, the relative viability (LC-2-ad; first compound 0.01 µM) was 0.275, the relative viability (LC-2-ad; first compound 0.03162 µM) was 0.279 and the relative viability (LC-2-ad; first compound 0.3162 µM) was 0.297. For the same molecule, the relative viability (LK-2; first compound 0.03162 µM) was 0.36, the relative viability (LK-2; first compound 0.3162 µM) was 0.263 and the relative viability (NCI-H1650; first compound 0.01 µM) was 0.295. It also gave a relative viability (NCI-H1650; first compound 0.03162 µM) of 0.406, a relative viability (NCI-H1650; first compound 0.3162 µM) of 0.359 and a relative viability (NCI-H1734; first compound 0.01 µM) of 0.358. It also gave a relative viability (NCI-H1734; first compound 0.03162 µM) of 0.454, a relative viability (NCI-H1734; first compound 0.3162 µM) of 0.41 and a relative viability (NCI-H1793; first compound 0.01 µM) of 0.986. For the same molecule, the relative viability (NCI-H1793; first compound 0.03162 µM) was 0.92, the relative viability (NCI-H1793; first compound 0.3162 µM) was 0.979 and the relative viability (NCI-H1944; first compound 0.01 µM) was 0.314. For the same molecule, the relative viability (NCI-H1944; first compound 0.03162 µM) was 0.824, the relative viability (NCI-H1944; first compound 0.3162 µM) was 0.665 and the relative viability (NCI-H1993; first compound 0.01 µM) was 0.589. The relative viability (NCI-H1993; first compound 0.03162 µM) was 0.564, the relative viability (NCI-H1993; first compound 0.3162 µM) was 0.563 and the relative viability (NCI-H2009; first compound 0.01 µM) was 1.16. For the same molecule, the relative viability (NCI-H2009; first compound 0.03162 µM) was 1.1, the relative viability (NCI-H2009; first compound 0.3162 µM) was 1.02 and the relative viability (NCI-H2023; first compound 0.03162 µM) was 0.268. For the same molecule, the relative viability (NCI-H2023; first compound 0.3162 µM) was 0.219, the relative viability (NCI-H2228; first compound 0.01 µM) was 0.301 and the relative viability (NCI-H2228; first compound 0.03162 µM) was 0.407. For the same molecule, the relative viability (NCI-H2228; first compound 0.3162 µM) was 0.354, the relative viability (NCI-H23; first compound 0.03162 µM) was 0.77 and the relative viability (NCI-H23; first compound 0.3162 µM) was 0.992. The relative viability (NCI-H2405; first compound 0.01 µM) was 1.02, the relative viability (NCI-H2405; first compound 0.03162 µM) was 1.04 and the relative viability (NCI-H2405; first compound 0.3162 µM) was 0.879. The relative viability (NCI-H838; first compound 0.01 µM) was 0.207, the relative viability (NCI-H838; first compound 0.03162 µM) was 0.27 and the relative viability (NCI-H838; first compound 0.3162 µM) was 0.243. For the same molecule, the relative viability (SK-LU-1; first compound 0.03162 µM) was 1.13, the relative viability (SK-LU-1; first compound 0.3162 µM) was 1.06 and the relative viability (UMC-11; first compound 0.01 µM) was 0.802. For the same molecule, the relative viability (UMC-11; first compound 0.03162 µM) was 0.814 and the relative viability (UMC-11; first compound 0.3162 µM) was 0.791.
